Patent publication US20250085273A1, “NOVEL RAPID DRUG DISCOVERY FOR SEPSIS AND AGENTS FOR USE AS SEPSIS THERAPY” (priority 2023, published 2025)
Where two headings read alike, the source gives them in different places.

Tests used:
α2C = biological target: T1, α2C (Homo sapiens, UniProt P18825); settings: read-out: affinity (Ki) α2C; cited from earlier work
T1 sequence (P18825 1-462): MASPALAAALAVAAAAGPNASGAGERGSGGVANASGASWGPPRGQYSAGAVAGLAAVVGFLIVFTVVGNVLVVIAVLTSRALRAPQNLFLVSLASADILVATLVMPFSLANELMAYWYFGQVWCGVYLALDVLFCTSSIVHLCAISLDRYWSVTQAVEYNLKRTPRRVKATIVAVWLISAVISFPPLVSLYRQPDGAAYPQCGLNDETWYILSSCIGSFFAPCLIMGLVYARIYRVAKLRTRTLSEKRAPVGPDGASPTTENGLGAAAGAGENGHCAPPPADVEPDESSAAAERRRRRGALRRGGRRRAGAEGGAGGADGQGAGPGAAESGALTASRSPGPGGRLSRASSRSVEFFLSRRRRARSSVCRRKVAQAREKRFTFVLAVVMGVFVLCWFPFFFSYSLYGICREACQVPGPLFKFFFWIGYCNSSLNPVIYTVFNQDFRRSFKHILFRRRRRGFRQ

[1] = test system: 5-dpf zebrafish larvae challenged with P. aeruginosa LPS 60 μg/mL; type: in vivo, Danio rerio; settings: compound 10 μM
histamine H1 receptor = histamine H1 receptor (Homo sapiens, UniProt P35367); settings: read-out: affinity for histamine H1 receptor; cited from earlier work
Sequence of histamine H1 receptor (P35367 whole entry, species assumed): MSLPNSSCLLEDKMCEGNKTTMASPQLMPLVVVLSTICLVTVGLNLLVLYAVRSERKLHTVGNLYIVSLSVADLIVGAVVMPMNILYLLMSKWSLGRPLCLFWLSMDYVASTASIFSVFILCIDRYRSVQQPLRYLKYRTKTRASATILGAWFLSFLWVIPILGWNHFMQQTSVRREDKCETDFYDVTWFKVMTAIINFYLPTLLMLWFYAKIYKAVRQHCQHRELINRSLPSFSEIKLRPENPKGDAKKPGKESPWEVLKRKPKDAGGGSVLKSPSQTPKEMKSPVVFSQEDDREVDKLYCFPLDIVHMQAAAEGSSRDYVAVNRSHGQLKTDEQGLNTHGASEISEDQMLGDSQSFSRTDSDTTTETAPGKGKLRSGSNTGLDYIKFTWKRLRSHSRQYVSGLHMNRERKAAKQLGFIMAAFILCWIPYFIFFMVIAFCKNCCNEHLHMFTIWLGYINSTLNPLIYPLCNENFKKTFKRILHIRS

noradrenergic α1A = biological target: T2, noradrenergic α1A (Homo sapiens, UniProt P35348); settings: read-out: affinity (Ki) α1A; cited from earlier work
T2 sequence (P35348 1-466): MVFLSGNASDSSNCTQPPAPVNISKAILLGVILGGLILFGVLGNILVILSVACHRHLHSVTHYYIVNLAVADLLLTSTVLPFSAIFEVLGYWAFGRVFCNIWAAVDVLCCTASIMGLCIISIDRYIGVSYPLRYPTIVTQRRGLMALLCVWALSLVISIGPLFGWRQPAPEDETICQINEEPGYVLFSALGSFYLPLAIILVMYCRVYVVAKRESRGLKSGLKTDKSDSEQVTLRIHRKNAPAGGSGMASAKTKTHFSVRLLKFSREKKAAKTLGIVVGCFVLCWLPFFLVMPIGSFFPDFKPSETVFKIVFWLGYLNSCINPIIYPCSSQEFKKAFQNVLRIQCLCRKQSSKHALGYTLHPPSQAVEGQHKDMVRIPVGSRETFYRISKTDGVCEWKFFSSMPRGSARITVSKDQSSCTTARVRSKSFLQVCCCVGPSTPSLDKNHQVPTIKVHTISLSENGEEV

[2] = test system: 5-dpf zebrafish challenged with K. Pneumoniae LPS (45 μg/mL); assay: Challenge with K. Pneumoniae LPS (45 μg/mL), 5-dpf zebrafish; type: in vivo, Danio rerio
Procedure: These tests followed the same methods described in the 5-dpf zebrafish confirmatory testing, but K. Pneumoniae LPS (45 μg/mL final in well concentration) was used instead of P. aeruginosa LPS.

α1B = biological target: T3, α1B (Homo sapiens, UniProt P35368); settings: read-out: affinity (Ki) α1B; cited from earlier work
T3 sequence (P35368 1-520): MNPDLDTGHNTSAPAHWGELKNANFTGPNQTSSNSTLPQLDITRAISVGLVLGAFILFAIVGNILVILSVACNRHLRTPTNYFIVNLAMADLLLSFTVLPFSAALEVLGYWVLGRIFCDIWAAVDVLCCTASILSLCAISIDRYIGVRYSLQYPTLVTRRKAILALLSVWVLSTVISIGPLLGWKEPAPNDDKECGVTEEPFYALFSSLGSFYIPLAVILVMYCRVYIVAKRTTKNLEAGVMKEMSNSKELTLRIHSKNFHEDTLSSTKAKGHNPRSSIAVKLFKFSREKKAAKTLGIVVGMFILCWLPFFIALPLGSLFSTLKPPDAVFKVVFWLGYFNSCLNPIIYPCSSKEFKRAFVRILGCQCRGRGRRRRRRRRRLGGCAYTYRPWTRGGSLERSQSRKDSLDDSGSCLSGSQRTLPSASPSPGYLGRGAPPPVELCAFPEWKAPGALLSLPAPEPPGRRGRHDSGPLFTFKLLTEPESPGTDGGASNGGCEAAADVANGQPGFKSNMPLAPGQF

muscarinic M1 receptor = biological target: T4, muscarinic M1 receptor (Homo sapiens, UniProt P11229); settings: at 10 μM; cited from earlier work
T4 sequence (P11229 1-460): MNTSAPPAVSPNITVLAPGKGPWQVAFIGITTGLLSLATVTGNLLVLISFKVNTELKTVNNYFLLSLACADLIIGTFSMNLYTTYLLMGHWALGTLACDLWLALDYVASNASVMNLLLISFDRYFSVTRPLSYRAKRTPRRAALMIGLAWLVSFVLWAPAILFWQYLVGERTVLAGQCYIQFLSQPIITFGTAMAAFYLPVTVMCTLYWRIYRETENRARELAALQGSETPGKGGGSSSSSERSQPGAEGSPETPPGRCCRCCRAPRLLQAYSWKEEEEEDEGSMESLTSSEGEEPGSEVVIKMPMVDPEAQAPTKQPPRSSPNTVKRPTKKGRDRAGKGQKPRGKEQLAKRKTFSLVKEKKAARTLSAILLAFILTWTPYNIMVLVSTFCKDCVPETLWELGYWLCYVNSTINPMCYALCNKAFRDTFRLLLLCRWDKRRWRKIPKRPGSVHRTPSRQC

O=c1ccc2ccc(OCCCCN3CCN(c4cccc5sccc45)CC3)cc2[nH]1 [Compound 45, Brexpiprazole]
Ki (α2C): 0.59 nM
5 dpf Embryos Percent Rescue (Mort + Tail Edema) ([1]; 5-dpf larvae): 94%
rescue of tail edema and mortality (sepsis rescue rate) at 5-dpf [1]: 94%
rescue of tail edema and mortality (sepsis rescue rate) at 5-dpf ([1]; listed as brexpiprazole): 100%
Ki (histamine H1 receptor): 19 nM
Ki (noradrenergic α1A): 3.8 nM
rescue of tail edema and mortality [2]: 100%
Ki (α1B): 0.17 nM
inhibition, muscarinic M1 receptor (muscarinic M1 receptor): 67%
